According to patent US20130072430A1, “METHODS FOR TREATMENT OR PROPHYLAXIS OF KIDNEY OR LIVER DYSFUNCTION” (NPS PHARMACEUTICALS, INC., priority 2010, published 2013):

Test system: Human patients with short bowel syndrome
Assay: Example 1: liver diagnostic biomarkers (total bilirubin, ALT, AST, ALP) in short bowel syndrome patients, every four weeks for 24 weeks
Type: in vivo
Set-up: AST (SGOT) Change from Baseline, Median / ALT (SGPT), Median / TOTAL BILIRUBIN, Median / TOTAL BILIRUBIN Change from Baseline, Median / ALT (SGPT) Change from Baseline, Median / AST (SGOT), Median: unit not given here
Procedure: Human patients with short bowel syndrome were divided into three groups: a control group (16 total individuals) to receive placebo, an experimental group (35 total individuals) to receive teduglutide at 0.05 mg/kg/day throughout the study, and an experimental group (32 total individuals) to receive teduglutide at 0.1 mg/kg/day throughout the study. Patients were treated by subcutaneous injection of placebo or the appropriate dose of teduglutide. As individuals with short bowel syndrome are likely to experience associated liver and kidney disease, known biomarkers of liver and kidney function were monitored every four weeks, for 24 weeks. The liver biomarkers tested included total bilirubin, ALT and AST and ALP. The kidney biomarkers tested included urea nitrogen, creatinine and GFR. Before administration of placebo or teduglutide, diagnostic biomarker levels were tested to establish a baseline for each individual.
To visualize the effect of GLP-2 on the levels of the diagnostic biomarkers, the average change from baseline was calculated for the placebo and teduglutide treated groups for each visit after a baseline was established. The average change from baseline of each group is depicted in FIGS. […]. The numerical figures for each diaanostic biomarker at each time point are depicted in Table 1.
The efficacy of teduglutide in treating liver dysfunction was further tested by sorting the data into two groups: individuals with abnormal baseline values of liver diagnostic biomarkers; and individuals with normal baseline values of liver diagnostic biomarkers. The mean diagnostic biomarker change from baseline for these two groups is shown for ALT (FIGS. 5 and 6) and AST (FIGS. 7 and 8). […] These changes were significant when compared to baseline levels for the group, and when compared to placebo (see FIGS. 5 and 7).
The raw data for this sorting is reproduced in Table 2 below.

CC[C@H](C)[C@H](NC(=O)[C@H](Cc1ccccc1)NC(=O)[C@H](CC(=O)O)NC(=O)[C@H](CCCNC(=N)N)NC(=O)[C@H](C)NC(=O)[C@H](C)NC(=O)[C@H](CC(C)C)NC(=O)[C@H](CC(N)=O)NC(=O)[C@H](CC(=O)O)NC(=O)[C@H](CC(C)C)NC(=O)[C@@H](NC(=O)[C@@H](NC(=O)[C@H](CC(N)=O)NC(=O)[C@H](CCSC)NC(=O)[C@H](CCC(=O)O)NC(=O)[C@H](CC(=O)O)NC(=O)[C@H](CO)NC(=O)[C@H](Cc1ccccc1)NC(=O)[C@H](CO)NC(=O)CNC(=O)[C@H](CC(=O)O)NC(=O)CNC(=O)[C@@H](N)Cc1c[nH]cn1)[C@@H](C)O)[C@@H](C)CC)C(=O)N[C@@H](CC(N)=O)C(=O)N[C@@H](Cc1c[nH]c2ccccc12)C(=O)N[C@@H](CC(C)C)C(=O)N[C@H](C(=O)N[C@@H](CCC(N)=O)C(=O)N[C@H](C(=O)N[C@@H](CCCCN)C(=O)N[C@H](C(=O)N[C@H](C(=O)N[C@@H](CC(=O)O)C(=O)O)[C@@H](C)O)[C@@H](C)CC)[C@@H](C)O)[C@@H](C)CC [teduglutide]
ALT (SGPT) Change from Baseline, Median (0.05 mg/kg/day, DW24): −5.0
ALT (SGPT), Mean (SD) (0.05 mg/kg/day, DW24): 31.7 (26.63)
ALT (SGPT), Median (0.05 mg/kg/day, DW24): 20.0
AST (SGOT) Change from Baseline, Mean (SD) (0.05 mg/kg/day, DW24): −6.8 (14.29)
AST (SGOT) Change from Baseline, Median (0.05 mg/kg/day, DW24): −4.5
AST (SGOT), Mean (SD) (0.05 mg/kg/day, DW24): 27.7 (10.23)
AST (SGOT), Median (0.05 mg/kg/day, DW24): 25.0
TOTAL BILIRUBIN Change from Baseline, Mean (SD) (0.05 mg/kg/day, DW24): −0.5 (7.11)
TOTAL BILIRUBIN Change from Baseline, Median (0.05 mg/kg/day, DW24): 0.0
TOTAL BILIRUBIN, Mean (SD) (0.05 mg/kg/day, DW24): 10.0 (6.28)
TOTAL BILIRUBIN, Median (0.05 mg/kg/day, DW24): 8.0
ALKALINE PHOSPHATASE Change from Baseline, Mean (SD) (0.10 mg/kg/day, DW4): −11.3 (32.19)
ALKALINE PHOSPHATASE Change from Baseline, Median (0.10 mg/kg/day, DW4): −10.5
ALKALINE PHOSPHATASE, Mean (SD) (0.10 mg/kg/day, DW4): 147.5 (74.98)
ALKALINE PHOSPHATASE, Median (0.10 mg/kg/day, DW4): 124.0
ALT (SGPT) Change from Baseline, Mean (SD) (0.10 mg/kg/day, DW4): −11.6 (22.98)
ALT (SGPT) Change from Baseline, Median (0.10 mg/kg/day, DW4): −6.5
ALT (SGPT), Mean (SD) (0.10 mg/kg/day, DW4): 38.6 (23.30)
ALT (SGPT), Median (0.10 mg/kg/day, DW4): 30.0
AST (SGOT) Change from Baseline, Mean (SD) (0.10 mg/kg/day, DW4): −7.3 (15.21)
AST (SGOT) Change from Baseline, Median (0.10 mg/kg/day, DW4): −5.0
AST (SGOT), Mean (SD) (0.10 mg/kg/day, DW4): 33.5 (17.00)
AST (SGOT), Median (0.10 mg/kg/day, DW4): 28.0
TOTAL BILIRUBIN Change from Baseline, Mean (SD) (0.10 mg/kg/day, DW4): −4.0 (17.41)
TOTAL BILIRUBIN Change from Baseline, Median (0.10 mg/kg/day, DW4): −1.0
TOTAL BILIRUBIN, Mean (SD) (0.10 mg/kg/day, DW4): 9.0 (5.65)
TOTAL BILIRUBIN, Median (0.10 mg/kg/day, DW4): 7.0
ALKALINE PHOSPHATASE Change from Baseline, Mean (SD) (0.10 mg/kg/day, DW8): −21.2 (41.41)
ALKALINE PHOSPHATASE Change from Baseline, Median (0.10 mg/kg/day, DW8): −20.0
ALKALINE PHOSPHATASE, Mean (SD) (0.10 mg/kg/day, DW8): 139.2 (75.84)
ALKALINE PHOSPHATASE, Median (0.10 mg/kg/day, DW8): 114.0
ALT (SGPT) Change from Baseline, Mean (SD) (0.10 mg/kg/day, DW8): −15.7 (26.87)
ALT (SGPT) Change from Baseline, Median (0.10 mg/kg/day, DW8): −8.0
ALT (SGPT), Mean (SD) (0.10 mg/kg/day, DW8): 34.1 (19.74)
ALT (SGPT), Median (0.10 mg/kg/day, DW8): 28.5
AST (SGOT) Change from Baseline, Mean (SD) (0.10 mg/kg/day, DW8): −10.3 (16.56)
AST (SGOT) Change from Baseline, Median (0.10 mg/kg/day, DW8): −5.0
AST (SGOT), Mean (SD) (0.10 mg/kg/day, DW8): 29.3 (12.52)
AST (SGOT), Median (0.10 mg/kg/day, DW8): 28.0
TOTAL BILIRUBIN Change from Baseline, Mean (SD) (0.10 mg/kg/day, DW8): −3.8 (13.91)
TOTAL BILIRUBIN Change from Baseline, Median (0.10 mg/kg/day, DW8): −1.0
TOTAL BILIRUBIN, Mean (SD) (0.10 mg/kg/day, DW8): 9.4 (9.80)
TOTAL BILIRUBIN, Median (0.10 mg/kg/day, DW8): 7.0
ALKALINE PHOSPHATASE Change from Baseline, Mean (SD) (0.10 mg/kg/day, DW12): −13.1 (55.43)
ALKALINE PHOSPHATASE Change from Baseline, Median (0.10 mg/kg/day, DW12): −16.5
ALKALINE PHOSPHATASE, Mean (SD) (0.10 mg/kg/day, DW12): 145.9 (83.34)
ALKALINE PHOSPHATASE, Median (0.10 mg/kg/day, DW12): 115.0
ALT (SGPT) Change from Baseline, Mean (SD) (0.10 mg/kg/day, DW12): −10.6 (30.82)
ALT (SGPT) Change from Baseline, Median (0.10 mg/kg/day, DW12): −11.0
ALT (SGPT), Mean (SD) (0.10 mg/kg/day, DW12): 40.4 (22.11)
ALT (SGPT), Median (0.10 mg/kg/day, DW12): 35.0
AST (SGOT) Change from Baseline, Mean (SD) (0.10 mg/kg/day, DW12): −3.3 (21.39)
AST (SGOT) Change from Baseline, Median (0.10 mg/kg/day, DW12): −3.5
AST (SGOT), Mean (SD) (0.10 mg/kg/day, DW12): 36.4 (20.41)
AST (SGOT), Median (0.10 mg/kg/day, DW12): 31.5
TOTAL BILIRUBIN Change from Baseline, Mean (SD) (0.10 mg/kg/day, DW12): −2.9 (12.93)
TOTAL BILIRUBIN Change from Baseline, Median (0.10 mg/kg/day, DW12): 0.0
TOTAL BILIRUBIN, Mean (SD) (0.10 mg/kg/day, DW12): 10.3 (11.39)
TOTAL BILIRUBIN, Median (0.10 mg/kg/day, DW12): 7.0
ALKALINE PHOSPHATASE Change from Baseline, Mean (SD) (0.10 mg/kg/day, DW16): −21.3 (59.79)
ALKALINE PHOSPHATASE Change from Baseline, Median (0.10 mg/kg/day, DW16): −20.5
ALKALINE PHOSPHATASE, Mean (SD) (0.10 mg/kg/day, DW16): 137.7 (81.33)
ALKALINE PHOSPHATASE, Median (0.10 mg/kg/day, DW16): 108.5
ALT (SGPT) Change from Baseline, Mean (SD) (0.10 mg/kg/day, DW16): −10.0 (35.59)
ALT (SGPT) Change from Baseline, Median (0.10 mg/kg/day, DW16): −10.0
ALT (SGPT), Mean (SD) (0.10 mg/kg/day, DW16): 39.7 (27.97)
ALT (SGPT), Median (0.10 mg/kg/day, DW16): 30.0
AST (SGOT) Change from Baseline, Mean (SD) (0.10 mg/kg/day, DW16): −6.6 (22.80)
AST (SGOT) Change from Baseline, Median (0.10 mg/kg/day, DW16): −4.0
AST (SGOT), Mean (SD) (0.10 mg/kg/day, DW16): 33.0 (16.71)
AST (SGOT), Median (0.10 mg/kg/day, DW16): 30.0
TOTAL BILIRUBIN Change from Baseline, Mean (SD) (0.10 mg/kg/day, DW16): −3.6 (14.89)
TOTAL BILIRUBIN Change from Baseline, Median (0.10 mg/kg/day, DW16): −0.5
TOTAL BILIRUBIN, Mean (SD) (0.10 mg/kg/day, DW16): 9.8 (9.14)
TOTAL BILIRUBIN, Median (0.10 mg/kg/day, DW16): 7.5
ALKALINE PHOSPHATASE Change from Baseline, Mean (SD) (0.10 mg/kg/day, DW20): −18.5 (63.67)
ALKALINE PHOSPHATASE Change from Baseline, Median (0.10 mg/kg/day, DW20): −23.0
ALKALINE PHOSPHATASE, Mean (SD) (0.10 mg/kg/day, DW20): 137.1 (82.59)
ALKALINE PHOSPHATASE, Median (0.10 mg/kg/day, DW20): 107.0
ALT (SGPT) Change from Baseline, Mean (SD) (0.10 mg/kg/day, DW20): −8.2 (37.70)
ALT (SGPT) Change from Baseline, Median (0.10 mg/kg/day, DW20): −9.0
ALT (SGPT), Mean (SD) (0.10 mg/kg/day, DW20): 41.3 (29.36)
ALT (SGPT), Median (0.10 mg/kg/day, DW20): 29.0
AST (SGOT) Change from Baseline, Mean (SD) (0.10 mg/kg/day, DW20): −4.9 (24.96)
AST (SGOT) Change from Baseline, Median (0.10 mg/kg/day, DW20): −2.5
AST (SGOT), Mean (SD) (0.10 mg/kg/day, DW20): 34.9 (19.82)
